{"source": "ChEMBL document CHEMBL4627315", "about": "“Promising antifungal agents: A minireview” (2020)", "key": {"Candida albicans [1]": {"tested_on": "Candida albicans", "test": "Antifungal activity against Candida albicans assessed as zone of inhibition at 25 to 100 ug/ml", "assay_type": "functional"}, "Cryptococcus gattii": {"tested_on": "Cryptococcus gattii", "test": "Antifungal activity against Cryptococcus gattii", "assay_type": "functional, Cryptococcus gattii VGI"}, "Aspergillus niger [2]": {"tested_on": "Aspergillus niger", "test": "Antifungal activity against Aspergillus niger assessed as zone of inhibition by serial dilution and disc diffusion method", "assay_type": "functional"}, "Aspergillus flavus [3]": {"tested_on": "Aspergillus flavus", "test": "Antifungal activity against Aspergillus flavus assessed as zone of inhibition by serial dilution and disc diffusion method", "assay_type": "functional"}, "Candida albicans [4]": {"tested_on": "Candida albicans", "test": "Antifungal activity against Candida albicans assessed as zone of inhibition by serial dilution and disc diffusion method", "assay_type": "functional"}, "Rhizopus [5]": {"tested_on": "Rhizopus", "test": "Antifungal activity against Rhizopus assessed as zone of inhibition by serial dilution and disc diffusion method", "assay_type": "functional"}, "Rhizopus [6]": {"tested_on": "Rhizopus", "test": "Potency index, ratio of Amphotericin B IZ to test compound IZ for Rhizopus assessed as zone of inhibition by serial dilution and disc diffusion method", "assay_type": "functional"}, "Candida albicans [7]": {"tested_on": "Candida albicans", "test": "Potency index, ratio of Amphotericin B IZ to test compound IZ for Candida albicans assessed as zone of inhibition by serial dilution and disc diffusion method", "assay_type": "functional"}, "Aspergillus niger [8]": {"tested_on": "Aspergillus niger", "test": "Potency index, ratio of Amphotericin B IZ to test compound IZ for Aspergillus niger assessed as zone of inhibition by serial dilution and disc diffusion method", "assay_type": "functional"}, "Aspergillus flavus [9]": {"tested_on": "Aspergillus flavus", "test": "Potency index, ratio of Amphotericin B IZ to test compound IZ for Aspergillus flavus assessed as zone of inhibition by serial dilution and disc diffusion method", "assay_type": "functional"}, "Fusarium graminearum": {"tested_on": "Fusarium graminearum", "test": "Antifungal activity against Fusarium graminearum", "assay_type": "functional"}, "Saccharomyces cerevisiae": {"tested_on": "Saccharomyces cerevisiae", "test": "Antifungal activity against Saccharomyces cerevisiae", "assay_type": "functional"}, "Cryptococcus neoformans": {"tested_on": "Cryptococcus neoformans", "test": "Antifungal activity against Cryptococcus neoformans", "assay_type": "functional"}}, "data": [{"compound": "OC(Cn1cncn1)(Cn1cncn1)c1ccc(F)cc1F", "note": "[FLUCONAZOLE]", "values": [{"measurement": "inhibition zone (IZ)", "setting": "Candida albicans [1]", "result": "2.6 - 2.8 cm"}]}, {"compound": "Clc1ccc(CO/N=C(\\Cn2ccnc2)c2ccc(Cl)cc2Cl)c(Cl)c1", "note": "[OXICONAZOLE]", "values": [{"measurement": "MIC", "setting": "Cryptococcus gattii", "result": "≤ 4", "unit": "µg/mL"}]}, {"compound": "C[C@@H]1[C@H](O)[C@@H](C)/C=C/C=C/C=C/C=C/C=C/C=C/C=C/[C@H](O[C@@H]2O[C@H](C)[C@@H](O)[C@H](N)[C@@H]2O)C[C@@H]2O[C@](O)(C[C@@H](O)C[C@@H](O)[C@H](O)CC[C@@H](O)C[C@@H](O)CC(=O)O[C@H]1C)C[C@H](O)[C@H]2C(=O)O", "note": "[AMPHOTERICIN B]", "values": [{"measurement": "inhibition zone (IZ)", "setting": "Aspergillus niger [2]", "result": "11 - 14 mm"}, {"measurement": "inhibition zone (IZ)", "setting": "Aspergillus flavus [3]", "result": "11 - 14 mm"}, {"measurement": "inhibition zone (IZ)", "setting": "Candida albicans [4]", "result": "11 - 14 mm"}, {"measurement": "inhibition zone (IZ)", "setting": "Rhizopus [5]", "result": "11 - 14 mm"}]}, {"compound": "Cc1nc(-c2ccc(F)c(Br)c2)n(CCN2CCNCC2)c1C", "values": [{"measurement": "Ratio", "setting": "Rhizopus [6]", "result": "1.5 - 2"}, {"measurement": "Ratio", "setting": "Candida albicans [7]", "result": "1.5 - 2"}, {"measurement": "inhibition zone (IZ)", "setting": "Aspergillus niger [2]", "result": "18 - 21 mm"}, {"measurement": "inhibition zone (IZ)", "setting": "Aspergillus flavus [3]", "result": "18 - 21 mm"}, {"measurement": "Ratio", "setting": "Aspergillus niger [8]", "result": "1.5 - 2"}, {"measurement": "inhibition zone (IZ)", "setting": "Candida albicans [4]", "result": "18 - 21 mm"}, {"measurement": "Ratio", "setting": "Aspergillus flavus [9]", "result": "1.5 - 2"}, {"measurement": "inhibition zone (IZ)", "setting": "Rhizopus [5]", "result": "18 - 21 mm"}]}, {"compound": "CCCCCCCCO[C@H]1[C@H](N)[C@@H](O)[C@@H](O[C@@H]2[C@@H](O)[C@H](O[C@H]3O[C@H](CN)[C@@H](O)[C@H](O)[C@H]3N)[C@@H](N)C[C@H]2N)O[C@@H]1C", "values": [{"measurement": "MIC", "setting": "Fusarium graminearum", "result": 7.8, "unit": "µg/mL"}, {"measurement": "MIC", "setting": "Saccharomyces cerevisiae", "result": "4 to 31.3", "unit": "µg/mL"}, {"measurement": "MIC", "setting": "Cryptococcus neoformans", "result": "3.9 to 7.8", "unit": "µg/mL"}]}, {"compound": "C/C(=C(/OCCOc1ccc(Cl)cc1)c1ccc(Cl)cc1Cl)n1ccnc1", "note": "[OMOCONAZOLE]", "values": [{"measurement": "MIC", "setting": "Cryptococcus gattii", "result": "≤ 4", "unit": "µg/mL"}]}, {"compound": "Cc1nc(-c2ccc(Cl)cc2)n(CCN2CCNCC2)c1C", "values": [{"measurement": "Ratio", "setting": "Rhizopus [6]", "result": "1.5 - 2"}, {"measurement": "Ratio", "setting": "Candida albicans [7]", "result": "1.5 - 2"}, {"measurement": "inhibition zone (IZ)", "setting": "Aspergillus niger [2]", "result": "16 - 20 mm"}, {"measurement": "inhibition zone (IZ)", "setting": "Aspergillus flavus [3]", "result": "16 - 20 mm"}, {"measurement": "Ratio", "setting": "Aspergillus niger [8]", "result": "1.5 - 2"}, {"measurement": "inhibition zone (IZ)", "setting": "Candida albicans [4]", "result": "16 - 20 mm"}, {"measurement": "Ratio", "setting": "Aspergillus flavus [9]", "result": "1.5 - 2"}, {"measurement": "inhibition zone (IZ)", "setting": "Rhizopus [5]", "result": "16 - 20 mm"}]}, {"compound": "Cc1nc(-c2cccs2)n(CCN2CCNCC2)c1C", "values": [{"measurement": "inhibition zone (IZ)", "setting": "Aspergillus niger [2]", "result": "16 - 200 mm"}, {"measurement": "inhibition zone (IZ)", "setting": "Aspergillus flavus [3]", "result": "16 - 200 mm"}, {"measurement": "inhibition zone (IZ)", "setting": "Candida albicans [4]", "result": "16 - 200 mm"}, {"measurement": "inhibition zone (IZ)", "setting": "Rhizopus [5]", "result": "16 - 200 mm"}]}, {"compound": "Cc1nc(-c2ccc(F)cc2)n(CCN2CCNCC2)c1C", "values": [{"measurement": "Ratio", "setting": "Rhizopus [6]", "result": "1.5 - 2"}, {"measurement": "Ratio", "setting": "Candida albicans [7]", "result": "1.5 - 2"}, {"measurement": "inhibition zone (IZ)", "setting": "Aspergillus niger [2]", "result": "16 - 22 mm"}, {"measurement": "inhibition zone (IZ)", "setting": "Aspergillus flavus [3]", "result": "16 - 22 mm"}, {"measurement": "Ratio", "setting": "Aspergillus niger [8]", "result": "1.5 - 2"}, {"measurement": "inhibition zone (IZ)", "setting": "Candida albicans [4]", "result": "16 - 22 mm"}, {"measurement": "Ratio", "setting": "Aspergillus flavus [9]", "result": "1.5 - 2"}, {"measurement": "inhibition zone (IZ)", "setting": "Rhizopus [5]", "result": "16 - 22 mm"}]}]}
